# Experimental data published in patent US20260285850A1, “SUBSTITUTED OXAZOLIDINONES AND IMIDAZOLINONES AS HERBICIDES” (FMC CORPORATION, priority 2023, published 2026).
# How the values were obtained:
# Format in all cases: in vivo
# [1] = test system: barnyardgrass (Echinochloa crus-galli); assay: Test A preemergence soil spray, visual injury rating 0-100; conditions: 10 days, 0 = no effect, 100 = complete control
# Procedure, shortened: (§1)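 Greenhouse test: loam/sand pots received a surfactant-containing formulation, as a preemergence directed soil spray or a postemergence spray on young plants. Injury was judged visually at day 10 relative to untreated controls.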
# [2] = test system: blackgrass (Alopecurus myosuroides); assay: as above; conditions: 10 days, 0 = no effect, 100 = complete control
# Procedure, shortened: as §1
# [3] = test system: corn (Zea mays); assay: as above; conditions: 10 days, 0 = no effect, 100 = complete control
# Procedure, shortened: as §1
# [4] = test system: green foxtail (Setaria viridis); assay: as above; conditions: 10 days, 0 = no effect, 100 = complete control
# Procedure, shortened: as §1
# [5] = test system: kochia (Bassia scoparia); assay: as above; conditions: 10 days, 0 = no effect, 100 = complete control
# Procedure, shortened: as §1
# [6] = test system: oat, wild (wild oat, Avena fatua); assay: as above; conditions: 10 days, 0 = no effect, 100 = complete control
# Procedure, shortened: as §1
# [7] = test system: palmer (palmer amaranth, palmer pigweed, Amaranthus palmeri); assay: as above; conditions: 10 days, 0 = no effect, 100 = complete control
# Procedure, shortened: as §1
# [8] = test system: ragweed (common ragweed, Ambrosia artemisiifolia); assay: as above; conditions: 10 days, 0 = no effect, 100 = complete control
# Procedure, shortened: as §1
# [9] = test system: ryegrass, Italian (italian ryegrass, Lolium multiflorum); assay: as above; conditions: 10 days, 0 = no effect, 100 = complete control
# Procedure, shortened: as §1
# [10] = test system: soybean (Glycine max); assay: as above; conditions: 10 days, 0 = no effect, 100 = complete control
# Procedure, shortened: as §1
# [11] = test system: wheat (Triticum aestivum); assay: as above; conditions: 10 days, 0 = no effect, 100 = complete control
# Procedure, shortened: as §1
# [12] = test system: barnyardgrass (Echinochloa crus-galli); assay: Test A postemergence application, visual injury rating 0-100; conditions: Postemergence, 10 days, 0 is no effect, 100 is complete control
# Procedure, shortened: as §1
# [13] = test system: blackgrass (Alopecurus myosuroides); assay: as above; conditions: Postemergence, 10 days, 0 is no effect, 100 is complete control
# Procedure, shortened: as §1
# [14] = test system: corn (Zea mays); assay: as above; conditions: Postemergence, 10 days, 0 is no effect, 100 is complete control
# Procedure, shortened: as §1
# [15] = test system: galium (catchweed bedstraw, Galium aparine); assay: as above; conditions: Postemergence, 10 days, 0 is no effect, 100 is complete control
# Procedure, shortened: as §1
# [16] = test system: green foxtail (Setaria viridis); assay: as above; conditions: Postemergence, 10 days, 0 is no effect, 100 is complete control
# Procedure, shortened: as §1
# [17] = test system: horseweed (Erigeron canadensis); assay: as above; conditions: Postemergence, 10 days, 0 is no effect, 100 is complete control
# Procedure, shortened: as §1
# [18] = test system: kochia (Bassia scoparia); assay: as above; conditions: Postemergence, 10 days, 0 is no effect, 100 is complete control
# Procedure, shortened: as §1
# [19] = test system: oat, wild (wild oat, Avena fatua); assay: as above; conditions: Postemergence, 10 days, 0 is no effect, 100 is complete control
# Procedure, shortened: as §1
# [20] = test system: palmer (palmer amaranth, palmer pigweed, Amaranthus palmeri); assay: as above; conditions: Postemergence, 10 days, 0 is no effect, 100 is complete control
# Procedure, shortened: as §1
# [21] = test system: ragweed (common ragweed, Ambrosia artemisiifolia); assay: as above; conditions: Postemergence, 10 days, 0 is no effect, 100 is complete control
# Procedure, shortened: as §1
# [22] = test system: ryegrass, Italian (italian ryegrass, Lolium multiflorum); assay: as above; conditions: Postemergence, 10 days, 0 is no effect, 100 is complete control
# Procedure, shortened: as §1
# [23] = test system: soybean (Glycine max); assay: as above; conditions: Postemergence, 10 days, 0 is no effect, 100 is complete control
# Procedure, shortened: as §1
# [24] = test system: wheat (Triticum aestivum); assay: as above; conditions: Postemergence, 10 days, 0 is no effect, 100 is complete control
# Procedure, shortened: as §1
# [25] = test system: barnyardgrass (Echinochloa crusgalli); assay: Test B flooded paddy test, visual plant response rating 0-100; conditions: 250 g ai/ha, Flood, applied to paddy water, evaluated after 13 days
# Procedure, shortened: (§2)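 Visual scores versus untreated controls were recorded 13 days after treatment of greenhouse-held plants. At the 2-leaf stage, pots were flooded 3 cm above the soil surface and compounds added straight to the water.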
# [26] = test system: ducksalad (Heteranthera limosa); assay: as above; conditions: 250 g ai/ha, Flood, applied to paddy water, evaluated after 13 days
# Procedure, shortened: as §2
# [27] = test system: rice (Oryza sativa); assay: as above; conditions: 250 g ai/ha, Flood, applied to paddy water, evaluated after 13 days
# Procedure, shortened: as §2
# [28] = test system: sedge, umbrella (small-flower umbrella sedge, Cyperus difformis); assay: as above; conditions: 250 g ai/ha, Flood, applied to paddy water, evaluated after 13 days
# Procedure, shortened: as §2
structure (smiles),measurement,setting,value
CC1(C(=O)NC2C=CC(C(=O)OCCS(C)(=O)=O)C2)CN(c2cc(Cl)cc(Cl)c2)C(=O)O1 (stereo not shown) [Compound 46],Barnyardgrass plant response rating (0 to 100 scale),[1]; 125 g ai/ha,80
same,Barnyardgrass plant response rating (0 to 100 scale),[1]; 500 g ai/ha,100
same,Blackgrass plant response rating (0 to 100 scale),[2]; 125 g ai/ha,80
same,Blackgrass plant response rating (0 to 100 scale),[2]; 500 g ai/ha,90
same,Corn plant response rating (0 to 100 scale),[3]; 125 g ai/ha,0
same,Corn plant response rating (0 to 100 scale),[3]; 500 g ai/ha,90
same,"Foxtail, Green plant response rating (0 to 100 scale)",[4]; 125 g ai/ha,0
same,"Foxtail, Green plant response rating (0 to 100 scale)",[4]; 500 g ai/ha,0
same,Kochia plant response rating (0 to 100 scale),[5]; 125 g ai/ha,60
same,Kochia plant response rating (0 to 100 scale),[5]; 500 g ai/ha,90
same,"Oat, Wild plant response rating (0 to 100 scale)",[6]; 125 g ai/ha,70
same,"Oat, Wild plant response rating (0 to 100 scale)",[6]; 500 g ai/ha,90
same,"Amaranth, Palmer plant response rating (0 to 100 scale)",[7]; 125 g ai/ha,80
same,"Amaranth, Palmer plant response rating (0 to 100 scale)",[7]; 500 g ai/ha,100
same,Ragweed plant response rating (0 to 100 scale),[8]; 125 g ai/ha,30
same,Ragweed plant response rating (0 to 100 scale),[8]; 500 g ai/ha,70
same,"Ryegrass, Italian plant response rating (0 to 100 scale)",[9]; 125 g ai/ha,80
same,"Ryegrass, Italian plant response rating (0 to 100 scale)",[9]; 500 g ai/ha,90
same,Soybean plant response rating (0 to 100 scale),[10]; 125 g ai/ha,10
same,Soybean plant response rating (0 to 100 scale),[10]; 500 g ai/ha,60
same,Wheat plant response rating (0 to 100 scale),[11]; 125 g ai/ha,70
same,Wheat plant response rating (0 to 100 scale),[11]; 500 g ai/ha,90
same,Barnyardgrass plant response rating (0 to 100 scale),[12]; 125 g ai/ha,100
same,Barnyardgrass plant response rating (0 to 100 scale),[12]; 500 g ai/ha,100
same,Blackgrass plant response rating (0 to 100 scale),[13]; 125 g ai/ha,100
same,Blackgrass plant response rating (0 to 100 scale),[13]; 500 g ai/ha,100
same,Corn plant response rating (0 to 100 scale),[14]; 125 g ai/ha,100
same,Corn plant response rating (0 to 100 scale),[14]; 500 g ai/ha,100
same,Galium plant response rating (0 to 100 scale),[15]; 125 g ai/ha,80
same,Galium plant response rating (0 to 100 scale),[15]; 500 g ai/ha,70
same,"Foxtail, Green plant response rating (0 to 100 scale)",[16]; 125 g ai/ha,80
same,"Foxtail, Green plant response rating (0 to 100 scale)",[16]; 500 g ai/ha,90
same,Horseweed plant response rating (0 to 100 scale),[17]; 125 g ai/ha,80
same,Horseweed plant response rating (0 to 100 scale),[17]; 500 g ai/ha,80
same,Kochia plant response rating (0 to 100 scale),[18]; 125 g ai/ha,80
same,Kochia plant response rating (0 to 100 scale),[18]; 500 g ai/ha,80
same,"Oat, Wild plant response rating (0 to 100 scale)",[19]; 125 g ai/ha,80
same,"Oat, Wild plant response rating (0 to 100 scale)",[19]; 500 g ai/ha,90
same,"Amaranth, Palmer / Pigweed, Palmer plant response rating (0 to 100 scale)",[20]; 125 g ai/ha,90
same,"Amaranth, Palmer / Pigweed, Palmer plant response rating (0 to 100 scale)",[20]; 500 g ai/ha,90
same,Ragweed plant response rating (0 to 100 scale),[21]; 125 g ai/ha,60
same,Ragweed plant response rating (0 to 100 scale),[21]; 500 g ai/ha,80
same,"Ryegrass, Italian plant response rating (0 to 100 scale)",[22]; 125 g ai/ha,70
same,"Ryegrass, Italian plant response rating (0 to 100 scale)",[22]; 500 g ai/ha,70
same,Soybean plant response rating (0 to 100 scale),[23]; 125 g ai/ha,80
same,Soybean plant response rating (0 to 100 scale),[23]; 500 g ai/ha,90
same,Wheat plant response rating (0 to 100 scale),[24]; 125 g ai/ha,90
same,Wheat plant response rating (0 to 100 scale),[24]; 500 g ai/ha,90
same,"Plant response rating, Barnyardgrass (0 to 100 scale, 0 is no effect and 100 is complete control)",[25],70
same,"Plant response rating, Ducksalad (0 to 100 scale, 0 is no effect and 100 is complete control)",[26],90
same,"Plant response rating, Rice (0 to 100 scale, 0 is no effect and 100 is complete control)",[27],10
same,"Plant response rating, Sedge, Umbrella (0 to 100 scale, 0 is no effect and 100 is complete control)",[28],95
